Data reported in patent publication US20250351832A1, “PHYTOCHEMICALS AS BIOPESTICIDES AND BIOSTIMULANTS” (KAY BEE BIO ORGANICS PVT. LTD., priority 2024, published 2025).
Read-outs that look alike come from different tables or passages of the source.

Legend:
Alternaria alternata [1] = assay: In vitro poisoned food technique against fungus (Ex. 20); assay type: cell-based
Alternaria alternata [2] = assay: Alternaria leaf spot/blight on inoculated tomato plants (Ex. 28); assay type: in vivo; details: tomato plants, Alternaria alternata; after 7 days; dose 1 ml/gm/lit
tomato seedlings = assay: Response of tomato plants, greenhouse growth (Ex. 30); assay type: in vivo; details: tomato seedlings, dose 1 ml/gm/lit
chili seedlings = assay: Response of chili plants, greenhouse growth (Ex. 31); assay type: in vivo; details: chili seedlings, dose 1 ml/gm/lit
Aphid [3] = details: Dose 1 ml/gm/lit.
Mite [4] = details: Dose 1 ml/gm/lit.
Mealy Bug [5] = details: Mealy Bug on cotton leaves, dose 1 ml/gm/lit., 48 Hrs.
Helicoverpa armigera [6] = details: Helicoverpa armigera on okra fruits, dose 1 ml/gm/lit., 72 Hrs.
Spodoptera litura [7] = details: Spodoptera litura on castor leaves; dose 1 ml/gm/lit.; 10 insects/treatment; 72 hrs after application
Thrips [8] = details: Thrips on cotton leaves; dose 1 ml/gm/lit.; 10 insects/treatment; 48 hrs after application
Aphid [9] = details: Aphids on cotton plants, green house; dose 1 ml/gm/lit.; 10 insects/plant, 10 plants/treatment; 48 hrs
Mite [10] = details: mite on okra plants, green house, dose 1 ml/gm/lit. spray
Mealy Bug [11] = details: mealy bug on cotton plants, green house, dose 1 ml/gm/lit. spray
Helicoverpa armigera [12] = details: Helicoverpa armigera 3rd instar on chickpea plants, dose 1 ml/gm/lit. spray
Spodoptera litura [13] = details: Spodoptera litura 3rd instar on cabbage plants, dose 1 ml/gm/lit. spray
Thrips [14] = details: thrips on cotton plants, greenhouse, dose 1 ml/gm/lit. spray
[15] = cited from earlier work
Spodoptera litura [16] = assay: whole plant or invertebrate; details: 72 h
Thrips [17] = assay: whole plant or invertebrate; details: in Gossypium hirsutum, 48 h
Aphid [18] = assay: whole plant or invertebrate; details: 48 h
[19] = 10 insects/treatment, 4 replications
[20] = 48 hrs, corrected for water control
[21] = 72 hrs, corrected for water control
[22] = Table 13, descriptive, no test described
[23] = read-out: % Corrected Mortality at 48 Hrs.
[24] = read-out: % Mortality at 48 Hrs.

CCCCCCCCCCCCCCCC(=O)O [Palmitic acid]
inhibition of growth at 1 mL or g/L (Alternaria alternata [1]; […]): 34.1%
Mean colony Diameter (mm) (Alternaria alternata [1]; poisoned food technique, PDA medium, dose 1 ml/gm/lit., after seven days): 58.00 mm
% Disease reduction over Control (Alternaria alternata [2]): 50.41%
Plant Height 5th Day (tomato seedlings; 5th day after application): 7.14 cm
Stem Girth 5th Day (tomato seedlings; 5th day after application): 1.79 mm
Plant Height 10th Day (tomato seedlings; 10th day after application): 8.54 cm
Stem Girth 10th Day (tomato seedlings; 10th day after application): 2.32 mm
Plant Height % Increase over pre on 10th Day (tomato seedlings; 10th day): 41.16%
Stem Girth % Increase over pre on 10th Day (tomato seedlings; 10th day): 76.92%
CCI 5th Day (tomato seedlings; 5th day after application): 13.26
CCI % Increase over pre on 10th Day (tomato seedlings; 10th day): 33.42%
Root Length (cm) 10th Day (tomato seedlings; 10th day): 4.95 cm
CCI 10th Day (tomato seedlings; 10th day after application): 14.89
Root Length % Increase over control (tomato seedlings; 10th day, vs water control): 48.91%
CCI 5th Day (chili seedlings; 5th day after application): 13.04
Plant Height (cm) 5th Day (chili seedlings; 5th day after application): 6.30 cm
CCI % Increase over pre on 10th Day (chili seedlings; 10th day): 56.37%
Plant Height % Increase over pre on 10th Day (chili seedlings; 10th day): 68.98%
Root Lenght (cm) 10th Day (chili seedlings; 10th day): 4.41 cm
Stem Girth % Increase over pre on 10th Day (chili seedlings; 10th day): 58.78%
CCI 10th Day (chili seedlings; 10th day after application): 15.95
Plant Height (cm) 10th Day (chili seedlings; 10th day after application): 7.3 cm
Root Lenght % Increase over control (chili seedlings; 10th day, vs water control): 61.00%
Total No. of dead insect at 48 Hrs. (Aphid [3]; 10 insects/treatment, 4 replications, cotton leaves): 6.00
% Corrected Mortality at 48 Hrs. (Aphid [3]; 48 hrs): 54.29%
% Mortality at 48 Hrs. (Aphid [3]; 48 hrs): 60.00%
Total No. of dead insect at 48 Hrs. (Mite [4]; 10 insects/treatment, 4 replications, okra leaves): 4.25
% Corrected Mortality at 48 Hrs. (Mite [4]; 48 hrs): 37.84%
% Mortality at 48 Hrs. (Mite [4]; 48 hrs): 42.50%
Total No. of dead insect at 48 Hrs. (Mealy Bug [5]; [19]): 6.50
% Mortality at 48 Hrs. (Mealy Bug [5]): 65.00%
% Corrected Mortality at 48 Hrs. (Mealy Bug [5]; corrected for water control): 63.16%
Total No. of dead insect at 72 Hrs. (Helicoverpa armigera [6]; [19]): 4.50
% Mortality at 72 Hrs. (Helicoverpa armigera [6]): 45.00%
% Corrected Mortality at 72 Hrs. (Helicoverpa armigera [6]; corrected for water control): 45.00%
Total No. of dead insect at 72 Hrs. (Spodoptera litura [7]): 2.50
Total No. of dead insect at 48 Hrs. (Thrips [8]): 4.25
Total No. of dead insect at 48 Hrs. (Aphid [9]): 70.00
% Mortality at 48 Hrs. (Mite [10]; 48 hrs after application): 45.00%
Total No. of dead insect at 48 Hrs. (Mite [10]; 48 hrs after application): 45.00
% Corrected Mortality at 48 Hrs. (Mite [10]; [20]): 42.11%
% Mortality at 48 Hrs. (Mealy Bug [11]; 48 hrs after application): 55.00%
Total No. of dead insect at 48 Hrs. (Mealy Bug [11]; 48 hrs after application): 55.00
% Corrected Mortality at 48 Hrs. (Mealy Bug [11]; [20]): 50.00%
% Mortality at 72 Hrs. (Helicoverpa armigera [12]; 72 hrs after application): 40.00%
% Corrected Mortality at 72 Hrs. (Helicoverpa armigera [12]; [21]): 40.00%
% Mortality at 72 Hrs. (Spodoptera litura [13]; 72 hrs after application): 27.50%
% Corrected Mortality at 72 Hrs. (Spodoptera litura [13]; [21]): 23.68%
% Mortality at 48 Hrs. (Thrips [14]; 48 hrs after application): 40.00%
Total No. of dead insect at 48 Hrs. (Thrips [14]; 48 hrs after application): 40.00
% Corrected Mortality at 48 Hrs. (Thrips [14]; [20]): 33.33%
Acaricidal Activity - Mode of action [15, 22]: Exhibited potent acaricidal
Antifungal Activity - Mode of action [15, 22]: Strongest antifungal
Bactericidal Activity - Mode of action [15, 22]: Destroyed or disintegrated
Nematicidal Activity - Mode of action [15, 22]: Repelling nematodes
Phytotonic Effect ([15]; Table 13, effect on plants, descriptive): Optimize soil
mortality at 1 mL or g/L (Spodoptera litura [16]; read-out: % Corrected Mortality at 72 Hrs.): 21.1%
mortality at 1 mL or g/L (Spodoptera litura [16]; read-out: % Mortality at 72 Hrs.): 25%
mortality at 1 mL or g/L (Thrips [17]; [23]): 34.3%
mortality at 1 mL or g/L (Thrips [17]; [24]): 42.5%
mortality at 1 mL or g/L (Aphid [18]; [23]): 64.7%
mortality at 1 mL or g/L (Aphid [18]; [24]): 70%
